Data taken from PubChem BioAssay AID2060887 (Molecular Pharmacology Branch, DTP, NCI, 2025).
pIC50: −log10 of the molar value.

System: 782815-120-R-J1-PDC complex spheroid viability
Experiment: Anticancer human tumor 782815-120-R-J1-PDC patient-derived colon adenocarcinoma cell line growth inhibition [RAS]
Details: for pIC50: curve of first compound; for viability, T/C: stronger effect = lower value
Text: RAS pathway inhibitors in Combinations in Complex Spheroids
A high-throughput screen of multi-cell type tumor spheroids was designed to identify active combinations of RAS pathway inhibitors and targeted small molecules. Complex spheroids include a stromal component modeled by human endothelial cells (HUVEC) and fibroblasts modeled by human mesenchymal stem cells (MSCs). The concentration ranges selected for each drug and investigational agent were based upon clinically achievable concentrations if the clinical Cmax of the agent was known.
Compounds. The drugs and investigational agents: abemaciclib (NSC768073), cobimetinib (NSC768068), divarasib (GDC6063, NSC841802), docetaxel (NSC628503), GDC-1971 (RLY-1971, NSC841576), gemcitabine (NSC613327), inavolisib (NSC800729), ipatasertib (NSC767898), KB-0742 (NSC834161), MRTX-1133 (NSC836407), osimertinib (NSC779217), RMC-4630 (NSC839698), RMC-6236 (NSC851965), RMC-6291 (NSC852671), Ro-3306 (NSC812927), sapanisertib (NSC764658), SN-38 (NSC673596), staurosporine (NSC755774), SY5609 (NSC837396), and tovorafenib (DAY101, NSC766906), were obtained from the National Cancer Institute (NCI) Developmental Therapeutics Program Chemical Repository. The FDA-approved anticancer drug set is available from the NCI Developmental Therapeutics Program. […] The stock solutions were prepared in dimethyl sulfoxide (DMSO, Sigma-Aldrich, St. Louis, MO, cat. D2650) at 800-fold the tested concentration and stored at -70 degrees C prior to their use. All drugs and investigational agents were tested over a range starting from a high concentration at or near the clinical Cmax and decreasing in half-log increments. If the clinical Cmax for an agent had not been determined, the highest concentration tested was 10 microM.
Cell Culture. All cells were maintained in an incubator at 37 degrees C and 5% CO2 with 95% humidity. The PDC lines were cultured according to standard operating procedures established by the NCI PDMR. All PDCs were thawed and cultured in Matrigel-coated flasks prepared with a working solution of 1X Ham's F-12 nutrient mix, without supplementation (Invitrogen, Waltham, MA, cat. 11765054), 100 U/mL penicillin-streptomycin (Invitrogen, cat. 15140122), and 2.5% Matrigel (Corning Inc., Corning, NY, cat. 354248) for the first three passages. The 362531-283-R-J2-PDC and 782815-120-R-J1-PDC lines were cultured in 6C/Colon 1B media, which includes advanced DMEM/F-12 (Thermo Fisher Scientific, cat. 12634028), 10 mM HEPES (Thermo Fisher Scientific, cat. 15630080), 1X GlutaMAX supplement (Thermo Fisher Scientific, cat. 35050061), 0.1 mg/mL primocin (InvivoGen, San Diego, CA, cat. ant-pm-2), 10% defined fetal bovine serum, heat inactivated (HyClone Laboratories Inc., Logan, UT, cat. SH30070.03HI), 50% L-WRN conditioned media (ATCC, cat. CRL-3276), 1.25 mM N-Acetyl-L-cysteine (Sigma-Aldrich, cat. A9165), 10 mM nicotinamide (Sigma-Aldrich, cat. N0636), 1X B-27 supplement (Thermo Fisher Scientific, cat. 17504044), 1X N-2 supplement (Thermo Fisher Scientific, cat. 17502048), 50 ng/mL human EGF (Thermo Fisher Scientific, cat. PHG0311), and 10 microM Y-27632 dihydrochloride (Tocris Bioscience, cat. 1254). The K12877-001-R-J1-PDC line was cultured in 6I media, which includes all 6C/Colon 1B media plus 10 ng/mL human FGF-10 (PeproTech, cat. 100-26), 1 ng/mL human FGF-2 (PeproTech, cat. 100-18B), 1 µM prostaglandin E2 (Tocris Bioscience, cat. 2296), […] hydrocortisone (Sigma-Aldrich, cat. H4001), and […] bovine insulin (Sigma-Aldrich, cat. I6634). The K86415-001-R-J1-PDC line was cultured in 6D media, which includes all 6C/Colon 1B media components minus the L-WRN conditioned media. The 485176-168-R4-J1-PDC was cultured in PANC media, which includes all 6C/Colon 1B media plus 100 ng/mL human FGF-10 (PeproTech, cat. 100-26), 500 nM SB-431542 (Selleckchem, cat. S1067), and 10 nM gastrin (Tocris Bioscience, cat. 3006). […]
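Note: spheroids exposed to compounds for 7 days before reading.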
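Throughout, for viability, T/C: 100% = DMSO vehicle control viability.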

O=C(c1ccc(F)c(F)c1Nc1ccc(I)cc1F)N1CC(O)([C@@H]2CCCCN2)C1 + C#Cc1c(F)ccc2cc(O)cc(-c3ncc4c(N5CC6CCC(C5)N6)nc(OCC56CCCN5CC(F)C6)nc4c3F)c12
pIC50 (second compound 0.0316 µM): 7.07 | pIC50 (second compound 0.1 µM): 7.24 | pIC50 (second compound 0.316 µM): 7.18 | pIC50 (second compound 1 µM): 7.10 | pIC50 (second compound 3.16 µM): 7.27 | pIC50 (second compound 10 µM): 7.23 | viability, T/C (second compound 0.0316 µM, first compound 0.00316 µM): 95.6% | viability, T/C (second compound 0.0316 µM, first compound 0.01 µM): 95% | viability, T/C (second compound 0.0316 µM, first compound 0.0316 µM): 66% | viability, T/C (second compound 0.0316 µM, first compound 0.1 µM): 47.1% | viability, T/C (second compound 0.0316 µM, first compound 0.316 µM): 23.6% | viability, T/C (second compound 0.0316 µM, first compound 1 µM): 3.7% | viability, T/C (second compound 0.1 µM, first compound 0.00316 µM): 97.4% | viability, T/C (second compound 0.1 µM, first compound 0.01 µM): 81% | viability, T/C (second compound 0.1 µM, first compound 0.0316 µM): 61.5% | viability, T/C (second compound 0.1 µM, first compound 0.1 µM): 38.6% | viability, T/C (second compound 0.1 µM, first compound 0.316 µM): 20.8% | viability, T/C (second compound 0.1 µM, first compound 1 µM): 4.18% | viability, T/C (second compound 0.316 µM, first compound 0.00316 µM): 98.7% | viability, T/C (second compound 0.316 µM, first compound 0.01 µM): 88.4% | viability, T/C (second compound 0.316 µM, first compound 0.0316 µM): 63.1% | viability, T/C (second compound 0.316 µM, first compound 0.1 µM): 42.2% | viability, T/C (second compound 0.316 µM, first compound 0.316 µM): 19.1% | viability, T/C (second compound 0.316 µM, first compound 1 µM): 2.93% | viability, T/C (second compound 1 µM, first compound 0.00316 µM): 97.8% | viability, T/C (second compound 1 µM, first compound 0.01 µM): 85.4% | viability, T/C (second compound 1 µM, first compound 0.0316 µM): 69.7% | viability, T/C (second compound 1 µM, first compound 0.1 µM): 46.5% | viability, T/C (second compound 1 µM, first compound 0.316 µM): 18.1% | viability, T/C (second compound 1 µM, first compound 1 µM): 1.87% | viability, T/C (second compound 3.16 µM, first compound 0.00316 µM): 99.4% | viability, T/C (second compound 3.16 µM, first compound 0.01 µM): 85.9% | viability, T/C (second compound 3.16 µM, first compound 0.0316 µM): 59.1% | viability, T/C (second compound 3.16 µM, first compound 0.1 µM): 40.7% | viability, T/C (second compound 3.16 µM, first compound 0.316 µM): 10.4% | viability, T/C (second compound 3.16 µM, first compound 1 µM): 0.92% | viability, T/C (second compound 10 µM, first compound 0.00316 µM): 98.4% | viability, T/C (second compound 10 µM, first compound 0.01 µM): 88.3% | viability, T/C (second compound 10 µM, first compound 0.0316 µM): 61.4% | viability, T/C (second compound 10 µM, first compound 0.1 µM): 41.2% | viability, T/C (second compound 10 µM, first compound 0.316 µM): 10.1% | viability, T/C (second compound 10 µM, first compound 1 µM): 0.5%
